Consider nine molecules from patent publication US4604397A, “Certain benzo-(pyrano and thiopyrano)-pyridines, useful as CNS agents” (Ciba-Geigy Corporation, priority 1985, dated 1986).

Where a name gives a salt, the structure may show the parent alone.

As a reminder, the IC50 is the concentration that gives 50% inhibition. A lower IC50 goes with greater potency. For orientation: ED50 means the midpoint of the dose-response relation.

The target of assay [1] is T1, serotonin receptor (Bos taurus, UniProt F1MGM3).
T1 construct: Caudate nuclei are dissected from freshly obtained calf brains; from tissue; host or cells: calf brain caudate nuclei membranes
Description: 3H-serotonin binding assay in vitro, calf brain (caudate nuclei) membranes. The note with it: 7 nM 3H-serotonin, 10 minutes at 37° C. The protocol:
The serotonin binding properties indicative of serotonin agonistic receptor regulating activity of compounds of the invention are determined in the in vitro binding assay as follows:
Membrane suspensions are prepared from calf brain and incubated with ^3 H-serotonin by a modification of the procedure described by Bennett and Snyder. Caudate nuclei are dissected from freshly obtained calf brains; they are frozen and stored at -70° C. for up to 3 months. For each binding experiment, a portion of tissue is homogenized with a Brinkmann Polytron in 50 volumes (w/v) of ice-cold 50 mM Tris-HCl (pH 7.7 at 25° C.) containing 10 mM dithiothreitol. The homogenate is centrifuged twice at 50,000×g for 10 minutes with rehomogenization of the pellet in fresh buffer between spins. The final pellet is homogenized in 100 volumes (based on original tissue weight) cold 50 mM Tris-HCl (pH 7.6 at 25° C.) containing […] pargyline, 0.1% ascorbic acid, 120 mM NaCl, 5 mM KCl, 2 mM CaCl2, 1 mM MgCl2 and 10 mM dithiothreitol. The suspension is warmed in a 37° C. bath for 10 minutes and then returned to ice.
In the binding assay, 2-ml aliquots of the final tissue suspension (equivalent to 20 mg of original wet tissue) are added to tubes (on ice) containing ^3 H-serotonin with or without test compound freshly dissolved in 0.1% ascorbic acid. The final concentration of ^3 H-serotonin is 7 nM. Test compounds are present over a wide range of concentrations, with triplicate tubes for each concentration. Tubes are incubated at 37° C. for 10 minutes and the suspensions are immediately filtered under vacuum through Whatman GF/B glass fiber filters. The filters are washed with 10 ml of cold Tris-HCl (pH 7.7 at 25° C.), placed in scintillation vials with 12 ml of scintillation solution, disrupted by vigorous mechanical shaking for 90 minutes and counted for radioactivity. The IC50 values (concentrations of test compounds required to inhibit the specific binding of 7 nM ^3 H-serotonin by 50%) are determined graphically.

In assay [2] the test system is serotonin receptor. Description: serotonin receptor agonist activity in vivo: decrease in accumulation of 5-hydroxytryptophane in rat brain. The protocol: The serotonin receptor agonist activity is determined in vivo by measuring the decrease in the accumulation of 5-hydroxytryptophane in the brain after administration of a test compound in the rat, as described in J. Med. Chem. 21, 864 (1978).

Assay [3] deals with presynaptic dopamine receptor. Description: dopamine binding assay in vitro: displacement of 3H-ADTN from calf-caudate nucleus membranes. Also noted: species or system calf (bovine). The note with it: 0.2 nM 3H-ADTN, 60 minutes at 25° C. The protocol:
The presynaptic dopamine receptor binding properties indicative of the presynaptic dopamine receptor regulatory, e.g. agonistic activity, of the compounds of the invention are determined in the dopamine binding assay in vitro by the following method involving the displacement of the dopamine agonist 2-amino-6,7-dihydroxy-1,2,3,4-tetrahydronaphthalene (^3 H-ADTN) from membranes from calf-caudate nucleus. [Eur. J. Pharmacol. 55, 137 (1979)].
Bovine brain tissue is homogenized in 50 volumes (based on original tissue weight) of 50 mM Tris-HCl buffer, pH 7.7 at 25° C., using a Brinkman Polytron, setting 6 for 20 seconds. The homogenate is centrifuged at 50,000×g for 10 minutes. The pellet is resuspended in 50 volumes of 50 mM Tris-HCl buffer, pH 7.7 and recentrifuged. The final pellet is resuspended in 200 volumes of incubation media containing: 50 mM Tris-HCl buffer, pH 7.7; 0.1% ascorbic acid; 0.001 mM pargyline; 120 mM NaCl; 5 mM KCl, 2 mM CaCl2 and 1 mM MgCl2.
In the binding assay, triplicate 2 ml samples (equivalent to 5 mg/ml original tissue) of the membrane suspension are incubated for 60 minutes at 25° C. with 0.2 nM ^3 H-ADTN without or in the presence of various concentrations of test compound in solvent. The reaction is terminated by filtering with 5 ml of cold 50 mM Tris-HCl buffer pH 7.7. The filters are placed in scintillation vials with 5 ml of scintillation solution, disrupted by vigorous mechanical shaking for 90 minutes, and counted for radioactivity.
The IC50 values represent the concentration of test compounds required to inhibit the specific binding of 0.2 nM ^3 H-ADTN by 50%, and are determined graphically.
A general note: In a radioligand displacement assay an active substance lowers the binding of a labelled ligand.

The next assay deals with dopamine autoreceptor. Description: rat gamma-butyrolactone (GBL) model, inhibition of GBL-induced DOPA accumulation (presynaptic dopamine agonist activity). The assay is classed as in vivo. The protocol:
Indicative of potential neuroleptic activity of the compounds of the invention, the in-vivo presynaptic dopamine agonist activity (also called dopamine autoreceptor agonist activity) is determined in the rat gamma-butyrolactone (GBL) model by a modification of the procedure described by Walters and Roth, Naunyn Schmiedeberg's Arch. Pharmacol. 296, 5 (1976). In this model, a presynaptic dopamine agonist inhibits the GBL-induced accumulation of the dopamine precursor DOPA after pretreatment with 3-hydroxybenzylhydrazine (NSD-1015), a DOPA decarboxylase inhibitor.
Test compounds are dissolved in 0.9% saline, with sodium metabisulfite to prevent oxidation, if required. […] Dihydroxyphenylalanine (DOPA) is analyzed by High Pressure Liquid Chromatography/Electrochemistry (HPLC/EC) techniques using a Bio-analytical Systems (BAS) Model LC-150 series Liquid Chromatograph. […] Compounds are detected with an electro-chemical detector having an oxidizing potential of 0.7 volts and sensitivity setting of 20 nAmps/V. Tissue concentrations and recoveries are calculated by using the internal standard dihydroxybenzylamine (DHBA). […] Data is statistically analysed by one-way Analysis of Variance with Duncan's Multiple Comparison Test. The activity of the test compounds is determined as the percent inhibition of DOPA accumulation at a given dose. […]

Assay [4] has as its system reserpine-induced hypomotility in the rat. Description: reversal of reserpine-induced hypomotility in the rat. Particulars: ip. The assay is classed as in vivo. From the text:
In vivo such selectivity can be determined by measurement of the degree of reversal of reserpine induced hypomotility in the rat. The relative absence of such reversal at effective doses (e.g. in the GBL model) is indicative of selective presynaptic dopamine agonist activity.

T1 sequence (F1MGM3 1-403): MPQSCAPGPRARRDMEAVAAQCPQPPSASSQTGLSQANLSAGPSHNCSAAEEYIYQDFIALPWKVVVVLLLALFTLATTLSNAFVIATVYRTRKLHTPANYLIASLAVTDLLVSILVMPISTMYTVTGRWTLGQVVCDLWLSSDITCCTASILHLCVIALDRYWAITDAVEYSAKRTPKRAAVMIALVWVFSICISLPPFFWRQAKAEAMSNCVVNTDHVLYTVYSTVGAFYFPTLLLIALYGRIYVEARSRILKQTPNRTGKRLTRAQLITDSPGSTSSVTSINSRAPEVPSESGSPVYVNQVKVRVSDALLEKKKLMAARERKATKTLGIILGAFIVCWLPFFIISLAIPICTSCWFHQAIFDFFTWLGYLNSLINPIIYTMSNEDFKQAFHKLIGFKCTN

In turn, `CCCN1CCC[C@@H]2c3c(OC)cccc3OC[C@H]21` (relative stereo) [trans-10-methoxy-4-propyl-1,2,3,4a,5,10b-hexahydro-4H-[1]-benzopyrano[3,4-b]pyridine hydrochloride] returned an IC50 on serotonin receptor [1] of approximately 0.02 µM.

Turning to `CN1CCC[C@@H]2c3c(O)cccc3OC[C@H]21` (relative stereo) [trans-10-hydroxy-4-methyl-1,2,3,4a,5,10b-hexahydro-4H-[1]-benzopyrano[3,4-b]pyridine hydrochloride], the IC50 at serotonin receptor [1] is approximately 0.4 µM. Still for that read-out and setting: then `COc1cccc2c1OC[C@@H]1[C@@H]2CCCN1C` (relative stereo) [trans-7-methoxy-4-methyl-1,2,3,4a,5,10b-hexahydro-4H-[1]-benzopyrano[3,4-b]pyridine hydrochloride], with approximately 0.08 µM.

For `Cc1ccc2c(c1O)OC[C@@H]1[C@@H]2CCCN1C.Cl` (relative stereo) [trans-7-hydroxy-4,8-dimethyl-1,2,3,4a,5,10b-hexahydro-4H-[1]-benzopyrano[3,4-b]pyridine hydrochloride], in the assay with serotonin receptor [2] (dose of 0.1 mg/Kg, compared with about 25% decrease of the 8-bromo-7-methoxy-4-methyl compound), the “decrease of accumulation of 5-hydroxytryptophane in the frontoparietal cortex of rat brain (in words)” value is “similarly effective”.

Regarding `COc1c(Br)ccc2c1OC[C@@H]1[C@@H]2CCCN1C.Cl` (relative stereo) [trans-8-bromo-7-methoxy-4-methyl-1,2,3,4a,5,10b-hexahydro-4H-[1]-benzopyrano[3,4-b]pyridine hydrochloride], in the assay on serotonin receptor [2] (2.5 mg/kg s.c.), the “decrease of accumulation of 5-hydroxytryptophane in the frontoparietal cortex of rat brain” value is “about 25%”. This molecule also displayed an IC50 on serotonin receptor [1] of approximately 0.02 µM. The molecule `CCCN1CCC=C2c3cc(O)ccc3SCC21` (stereo not shown) [9-hydroxy-4-propyl-2,3,4a,5-tetrahydro-4H-[1]-benzothiopyrano[3,4-b]pyridine hydrochloride] yielded a half-maximal inhibitory concentration (IC50) in assay [3] of approximately 0.01 µM. In the case of `CCCN1CCC[C@@H]2c3cc(O)ccc3OC[C@H]21.Cl` (relative stereo) [trans-9-hydroxy-4-propyl-1,2,3,4a,5,10b-hexahydro-4H-[1]-benzopyrano[3,4-b]pyridine hydrochloride], the ED50 was approximately 0.16 mg/kg in the assay with dopamine autoreceptor (ip, read-out: ED50 in the GBL model (dose at which DOPA accumulation is inhibited by 50%)) and approximately 10 mg/kg in assay [4]. The “activity in the GBL model orally” value with dopamine autoreceptor (oral, dose of about 0.5 mg/kg) is reported as “active”. Besides, the half-inhibitory concentration (IC50) in assay [3] was approximately 0.03 µM. Take `CCCCN1CCC[C@@H]2c3cccc(O)c3OC[C@H]21` (relative stereo) [trans-4-butyl-7-hydroxy-1,2,3,4a,5,10b-hexahydro-4H-[1]-benzopyran-[3,4-b]pyridine hydrochloride]: in assay [3], the IC50 is approximately 0.02 µM.

Molecule `CCCN1CCC[C@@H]2c3cccc(O)c3OC[C@H]21` (relative stereo) [trans-7-hydroxy-4-propyl-1,2,3,4a,5,10b-hexahydro-4H-[1]-benzopyrano[3,4-b]pyridine hydrochloride] returned an IC50 in assay [3] of approximately 0.06 µM.
